Assays:
[1] = target: T1, Alkaline phosphatase, tissue-nonspecific isozyme (Bos taurus, UniProt P09487); experiment: Inhibition of bovine tissue non-specific alkaline phosphatase preincubated for 3 to 5 mins followed by CDP-star substrate addition measured after 15 mins by luminescence assay
T1 sequence (P09487 whole entry): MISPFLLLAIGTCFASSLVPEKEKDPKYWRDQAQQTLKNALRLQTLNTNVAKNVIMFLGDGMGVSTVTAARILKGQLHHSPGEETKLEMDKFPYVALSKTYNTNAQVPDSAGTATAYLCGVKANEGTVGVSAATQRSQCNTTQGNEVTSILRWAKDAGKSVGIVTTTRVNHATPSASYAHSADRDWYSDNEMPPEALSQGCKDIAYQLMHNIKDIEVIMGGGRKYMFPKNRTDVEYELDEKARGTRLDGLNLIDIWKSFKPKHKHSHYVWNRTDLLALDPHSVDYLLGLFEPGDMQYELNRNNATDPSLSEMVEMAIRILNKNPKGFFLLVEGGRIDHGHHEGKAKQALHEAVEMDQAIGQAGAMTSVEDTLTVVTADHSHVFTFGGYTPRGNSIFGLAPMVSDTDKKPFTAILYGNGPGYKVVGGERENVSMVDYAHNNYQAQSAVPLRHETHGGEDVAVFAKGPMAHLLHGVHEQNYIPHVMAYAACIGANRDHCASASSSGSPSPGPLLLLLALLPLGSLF

5'-nucleotidase [2] = target: T2, 5'-nucleotidase (Homo sapiens, UniProt P21589); experiment: Inhibition of human Ecto-5'-nucleotidase transfected in COS7 cells preincubated for 10 mins followed by AMP addition measured after 10 mins; type: cell-based, COS-7
[3] = target: Intestinal-type alkaline phosphatase (Bos taurus, UniProt P19111); experiment: Inhibition of calf intestinal alkaline phosphatase preincubated for 3 to 5 mins followed by CDP-star substrate addition measured after 15 mins by luminescence assay
5'-nucleotidase [4] = target: T3, 5'-nucleotidase (Rattus norvegicus, UniProt P21588); experiment: Inhibition of rat Ecto-5'-nucleotidase transfected in COS7 cells preincubated for 10 mins followed by AMP addition measured after 10 mins; type: cell-based, COS-7
T3 sequence (P21588 whole entry): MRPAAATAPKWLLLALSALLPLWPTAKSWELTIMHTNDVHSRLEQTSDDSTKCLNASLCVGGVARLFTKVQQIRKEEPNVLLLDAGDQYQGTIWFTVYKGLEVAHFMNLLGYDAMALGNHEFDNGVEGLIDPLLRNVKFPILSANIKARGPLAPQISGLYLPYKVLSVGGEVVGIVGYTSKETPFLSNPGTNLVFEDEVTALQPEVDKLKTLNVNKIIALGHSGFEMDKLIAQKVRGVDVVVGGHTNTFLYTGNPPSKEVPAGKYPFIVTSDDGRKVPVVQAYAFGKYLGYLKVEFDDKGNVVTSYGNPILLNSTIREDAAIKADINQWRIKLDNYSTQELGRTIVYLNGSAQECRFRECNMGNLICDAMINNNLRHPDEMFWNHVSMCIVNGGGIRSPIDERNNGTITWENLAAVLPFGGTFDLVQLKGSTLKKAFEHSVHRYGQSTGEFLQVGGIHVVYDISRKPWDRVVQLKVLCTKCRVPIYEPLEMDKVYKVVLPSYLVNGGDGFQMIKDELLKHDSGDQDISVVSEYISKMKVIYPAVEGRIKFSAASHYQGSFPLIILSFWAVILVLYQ

[5] = target: T4, 5'-nucleotidase (Rattus norvegicus) (UniProt P21588); experiment: Inhibition of rat Ecto-5'-nucleotidase transfected in COS7 cells at 1 mM preincubated for 10 mins followed by AMP addition measured after 10 mins; type: cell-based; details: COS-7
T4 sequence (whole entry): T3 sequence (P21588 whole entry)

5'-nucleotidase [6] = target: T2, 5'-nucleotidase; experiment: Inhibition of human Ecto-5'-nucleotidase transfected in COS7 cells at 1 mM preincubated for 10 mins followed by AMP addition measured after 10 mins; type: cell-based; details: COS-7
[7] = target: T5, Alkaline phosphatase, tissue-nonspecific isozyme (Bos taurus) (UniProt P09487); experiment: Inhibition of bovine tissue non-specific alkaline phosphatase at 0.2 mM preincubated for 3 to 5 mins followed by CDP-star substrate addition measured after 15 mins by luminescence assay
T5 sequence (whole entry): T1 sequence (P09487 whole entry)

T2 sequence (P21589 whole entry): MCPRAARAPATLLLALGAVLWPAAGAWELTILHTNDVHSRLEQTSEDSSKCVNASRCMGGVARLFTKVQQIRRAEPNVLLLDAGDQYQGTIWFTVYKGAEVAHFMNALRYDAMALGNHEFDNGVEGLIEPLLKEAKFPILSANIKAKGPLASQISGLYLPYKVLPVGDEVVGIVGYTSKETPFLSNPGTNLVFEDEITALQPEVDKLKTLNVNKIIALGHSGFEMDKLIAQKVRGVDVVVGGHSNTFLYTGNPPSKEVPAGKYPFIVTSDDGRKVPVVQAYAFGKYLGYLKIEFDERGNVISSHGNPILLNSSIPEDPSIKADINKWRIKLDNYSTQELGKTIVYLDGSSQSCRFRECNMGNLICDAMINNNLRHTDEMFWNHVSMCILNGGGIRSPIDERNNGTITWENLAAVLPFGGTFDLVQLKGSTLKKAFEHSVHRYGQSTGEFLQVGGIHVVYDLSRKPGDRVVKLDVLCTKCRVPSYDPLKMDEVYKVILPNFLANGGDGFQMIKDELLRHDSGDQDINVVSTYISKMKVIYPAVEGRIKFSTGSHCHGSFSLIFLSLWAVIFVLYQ
Intestinal-type alkaline phosphatase, sequence (P19111 whole entry): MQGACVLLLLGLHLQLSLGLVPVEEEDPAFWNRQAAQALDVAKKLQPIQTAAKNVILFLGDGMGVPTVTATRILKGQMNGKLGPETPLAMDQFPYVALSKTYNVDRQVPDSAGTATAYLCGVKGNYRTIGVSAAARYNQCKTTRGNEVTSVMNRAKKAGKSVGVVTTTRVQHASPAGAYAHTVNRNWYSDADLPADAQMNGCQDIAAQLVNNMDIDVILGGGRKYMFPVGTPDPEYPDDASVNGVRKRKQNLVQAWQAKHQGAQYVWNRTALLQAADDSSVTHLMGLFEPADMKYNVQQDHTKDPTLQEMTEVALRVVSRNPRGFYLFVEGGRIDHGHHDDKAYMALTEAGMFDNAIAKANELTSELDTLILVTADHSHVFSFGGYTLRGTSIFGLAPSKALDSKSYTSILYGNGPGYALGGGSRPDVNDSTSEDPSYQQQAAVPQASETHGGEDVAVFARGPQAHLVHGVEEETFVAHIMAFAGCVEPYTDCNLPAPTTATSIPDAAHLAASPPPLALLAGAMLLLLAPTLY

Compound: CC(C)OC1Oc2ccccc2C(=O)/C1=C\Nc1ccc(S(N)(=O)=O)cc1 (racemic)
- IC50 [1]: 47100 nM
- Ki [1]: 20100 nM
- IC50 (5'-nucleotidase [2]): 1170 nM
- Ki (5'-nucleotidase [2]): 53 nM
- IC50 [3]: 527 nM
- Ki [3]: 220 nM
- IC50 (5'-nucleotidase [4]): 540 nM
- Ki (5'-nucleotidase [4]): 26 nM

Compound: COC1Oc2c(Cl)cc(Cl)cc2C(=O)/C1=C\Nc1ccccc1S(N)(=O)=O (racemic)
- IC50 [1]: 5360 nM
- Ki [1]: 2280 nM
- IC50 (5'-nucleotidase [2]): 880 nM
- Ki (5'-nucleotidase [2]): 42 nM
- IC50 [3]: 9870 nM
- Ki [3]: 4210 nM
- IC50 (5'-nucleotidase [4]): 1840 nM
- Ki (5'-nucleotidase [4]): 87 nM

Compound: CCOC1Oc2ccc(Br)cc2C(=O)/C1=C\Nc1ccc(S(N)(=O)=O)cc1 (racemic)
- inhibition [5]: 29.7%

Compound: COC1Oc2ccccc2C(=O)/C1=C\Nc1ccccc1S(N)(=O)=O (racemic)
- IC50 [1]: 715000 nM
- Ki [1]: 305000 nM
- IC50 (5'-nucleotidase [2]): 1910 nM
- Ki (5'-nucleotidase [2]): 91 nM
- IC50 [3]: 7810 nM
- Ki [3]: 3340 nM
- IC50 (5'-nucleotidase [4]): 2390 nM
- Ki (5'-nucleotidase [4]): 114 nM

Compound: O=c1c(C2Nc3ccccc3S(=O)(=O)N2)coc2ccccc12 (racemic)
- IC50 (5'-nucleotidase [4]): 3810 nM
- Ki (5'-nucleotidase [4]): 181 nM

Compound: CCOC1Oc2ccccc2C(=O)/C1=C\Nc1ccc(S(=O)(=O)Nc2ccc(OC)nn2)cc1 (racemic)
- IC50 (5'-nucleotidase [4]): 1090 nM
- Ki (5'-nucleotidase [4]): 51.7 nM

Compound: CCOC1Oc2ccc(CC)cc2C(=O)/C1=C\Nc1cccc(S(N)(=O)=O)c1 (racemic)
- inhibition [5]: 40.5%

Compound: COC1Oc2c(Cl)cc(Cl)cc2C(=O)/C1=C\Nc1cccc(S(N)(=O)=O)c1 (racemic)
- IC50 [1]: 3520 nM
- Ki [1]: 1490 nM
- IC50 (5'-nucleotidase [2]): 970 nM
- Ki (5'-nucleotidase [2]): 46 nM
- IC50 [3]: 8340 nM
- Ki [3]: 3590 nM
- IC50 (5'-nucleotidase [4]): 4810 nM
- Ki (5'-nucleotidase [4]): 229 nM

Compound: COC1Oc2ccc(F)cc2C(=O)/C1=C\Nc1ccccc1S(N)(=O)=O (racemic)
- inhibition (5'-nucleotidase [6]): 48.2%
- IC50 [1]: 17100 nM
- Ki [1]: 7290 nM
- IC50 [3]: 10200 nM
- Ki [3]: 4260 nM
- inhibition [5]: 45.4%

Compound: COC1Oc2ccc(Cl)cc2C(=O)/C1=C\Nc1cccc(S(N)(=O)=O)c1 (racemic)
- inhibition [7]: 34.2%
- IC50 (5'-nucleotidase [2]): 560 nM
- Ki (5'-nucleotidase [2]): 27 nM
- IC50 [3]: 31900 nM
- Ki [3]: 13600 nM
- IC50 (5'-nucleotidase [4]): 2380 nM
- Ki (5'-nucleotidase [4]): 113 nM

Compound: COC1Oc2c(Cl)cc(Cl)cc2C(=O)/C1=C\Nc1ccc(S(N)(=O)=O)cc1 (racemic)
- IC50 [1]: 16200 nM
- Ki [1]: 6190 nM
- IC50 (5'-nucleotidase [2]): 2920 nM
- Ki (5'-nucleotidase [2]): 138 nM
- IC50 [3]: 3250 nM
- Ki [3]: 1380 nM
- IC50 (5'-nucleotidase [4]): 10100 nM
- Ki (5'-nucleotidase [4]): 472 nM

Compound: CCOC1Oc2ccc(F)cc2C(=O)/C1=C\Nc1ccc(S(N)(=O)=O)cc1 (racemic)
- IC50 (5'-nucleotidase [4]): 2130 nM
- Ki (5'-nucleotidase [4]): 101 nM

Compound: CCOC1Oc2c(Br)cc(Br)cc2C(=O)/C1=C\Nc1ccccc1S(N)(=O)=O (racemic)
- IC50 (5'-nucleotidase [4]): 40100 nM
- Ki (5'-nucleotidase [4]): 1910 nM

Compound: CCOC1Oc2ccccc2C(=O)/C1=C\Nc1ccc(S(=O)(=O)Nc2cc(OC)nc(OC)n2)cc1 (racemic)
- inhibition [5]: 28.2%

Compound: COC1Oc2ccc(Cl)cc2C(=O)/C1=C\Nc1ccc(S(N)(=O)=O)cc1 (racemic)
- inhibition [7]: 20.9%
- IC50 (5'-nucleotidase [2]): 1660 nM
- Ki (5'-nucleotidase [2]): 79 nM
- IC50 [3]: 4430 nM
- Ki [3]: 1890 nM
- IC50 (5'-nucleotidase [4]): 1710 nM
- Ki (5'-nucleotidase [4]): 81 nM

Compound: O=c1c(C2Nc3ccccc3S(=O)(=O)N2)coc2ccc(F)cc12 (racemic)
- IC50 (5'-nucleotidase [4]): 2710 nM
- Ki (5'-nucleotidase [4]): 129 nM

Compound: CCOC1Oc2ccccc2C(=O)/C1=C\Nc1cccc(S(N)(=O)=O)c1 (racemic)
- inhibition [5]: 30.1%

Compound: CCOC1Oc2ccc(Br)cc2C(=O)/C1=C\Nc1cccc(S(N)(=O)=O)c1 (racemic)
- IC50 (5'-nucleotidase [4]): 6130 nM
- Ki (5'-nucleotidase [4]): 292 nM

Compound: CCCCOC1Oc2ccccc2C(=O)/C1=C\Nc1cccc(S(N)(=O)=O)c1 (racemic)
- IC50 [1]: 77800 nM
- Ki [1]: 33200 nM
- IC50 (5'-nucleotidase [2]): 377 nM
- Ki (5'-nucleotidase [2]): 18 nM
- IC50 [3]: 2290 nM
- Ki [3]: 978 nM
- IC50 (5'-nucleotidase [4]): 3610 nM
- Ki (5'-nucleotidase [4]): 172 nM

Compound: CCOC1Oc2ccccc2C(=O)/C1=C\Nc1ccc(S(=O)(=O)Nc2nnc(C)s2)cc1 (racemic)
- inhibition [5]: 48%

Compound: CCCCOC1Oc2ccccc2C(=O)/C1=C\Nc1ccc(S(N)(=O)=O)cc1 (racemic)
- IC50 [1]: 4570 nM
- Ki [1]: 1950 nM
- IC50 (5'-nucleotidase [2]): 1320 nM
- Ki (5'-nucleotidase [2]): 63 nM
- IC50 [3]: 48300 nM
- Ki [3]: 20600 nM
- inhibition [5]: 6.66%

Compound: COC1Oc2ccc(F)cc2C(=O)/C1=C\Nc1ccc(S(N)(=O)=O)cc1 (racemic)
- inhibition (5'-nucleotidase [6]): 46.8%
- IC50 [1]: 17600 nM
- Ki [1]: 7510 nM
- IC50 [3]: 68600 nM
- Ki [3]: 29100 nM
- inhibition [5]: 46.4%

Compound: CCOC1Oc2ccc(Br)cc2C(=O)/C1=C\Nc1ccc(S(=O)(=O)Nc2ccccn2)cc1 (racemic)
- inhibition [5]: 23.6%

Compound: CCOC1Oc2ccc(CC)cc2C(=O)/C1=C\Nc1ccc(S(N)(=O)=O)cc1 (racemic)
- IC50 (5'-nucleotidase [4]): 3730 nM
- Ki (5'-nucleotidase [4]): 178 nM

Compound: CCOC1Oc2ccccc2C(=O)/C1=C\Nc1ccc(S(N)(=O)=O)cc1 (racemic)
- inhibition [5]: 39.5%

Compound: CCOC1Oc2ccc(F)cc2C(=O)/C1=C\Nc1cccc(S(N)(=O)=O)c1 (racemic)
- IC50 (5'-nucleotidase [4]): 990 nM
- Ki (5'-nucleotidase [4]): 47 nM

Compound: O=c1c(C2Nc3ccccc3S(=O)(=O)N2)coc2ccc(Br)cc12 (racemic)
- inhibition [5]: 20.3%

Compound: CCOC1Oc2ccc(CC)cc2C(=O)/C1=C\Nc1ccccc1S(N)(=O)=O (racemic)
- IC50 (5'-nucleotidase [4]): 101 nM
- Ki (5'-nucleotidase [4]): 4.7 nM

Compound: COC1Oc2ccc(F)cc2C(=O)/C1=C\Nc1cccc(S(N)(=O)=O)c1 (racemic)
- inhibition (5'-nucleotidase [6]): 44.4%
- IC50 [1]: 1460 nM
- Ki [1]: 623 nM
- IC50 [3]: 13500 nM
- Ki [3]: 5660 nM
- inhibition [5]: 46%

Compound: COC1Oc2ccc(C)cc2C(=O)/C1=C\Nc1cccc(S(N)(=O)=O)c1 (racemic)
- inhibition (5'-nucleotidase [6]): 44.5%
- IC50 [1]: 110000 nM
- Ki [1]: 47200 nM
- IC50 [3]: 6560 nM
- Ki [3]: 2770 nM
- inhibition [5]: 47.5%

Compound: CCOC1Oc2ccccc2C(=O)/C1=C\Nc1ccc(S(=O)(=O)Nc2ccccn2)cc1 (racemic)
- IC50 (5'-nucleotidase [4]): 15200 nM
- Ki (5'-nucleotidase [4]): 712 nM

Compound: COC1Oc2ccc(C)cc2C(=O)/C1=C\Nc1ccc(S(N)(=O)=O)cc1 (racemic)
- inhibition (5'-nucleotidase [6]): 47%
- IC50 [1]: 8170 nM
- Ki [1]: 3490 nM
- IC50 [3]: 3130 nM
- Ki [3]: 1340 nM
- inhibition [5]: 42.9%

— ChEMBL document CHEMBL3797053, “2-Alkoxy-3-(sulfonylarylaminomethylene)-chroman-4-ones as potent and selective inhibitors of ectonucleotidases” (Eur J Med Chem, 2016)
